Test results reported in PMC10390775, “CETP inhibitor evacetrapib enters mouse brain tissue” (Frontiers in Pharmacology, 2023).
Several values for one entry are separate records, joined by “and”; a condition that tells them apart may be missing. Identical values can stand only once. Like-named read-outs stand apart in the source and are kept apart here.

Assay: Pharmacokinetics of evacetrapib in plasma, liver and brain after a single tail vein injection (UHPLC-MS-qTOF)
Type: in vivo, hCETPtg mice (C57BL/6J background)
Conditions: for Brain peak concentration above plasma IC50: IC50 36 nM in human plasma; for k el: read-out: Kβ (elimination rate constant) (converted); for half-life: read-out: t1/2β (half-life) (converted); for Kp: accounting for residual blood, read-out: Tissue penetration ratio (AUC brain / AUC plasma); for MRT: read-out: MRT (mean residence time); for clearance: read-out: CL (drug clearance) (converted); for Vd: read-out: Vss (volume of distribution at steady state)
Experimental: The experiment was performed in conformity with the OECD Guidelines 417 ([OECD, 2010]). Male hCETPtg mice were chosen for the pharmacokinetic analysis. Mice were fed Teklad Global Diets #2018 from Envigo, Canada, for 8 weeks starting from birth, followed by a diet change of modified low-fat RD Western diet to match TD.08485 with 1% cholesterol from research diets #D16121201 for a duration of 3–4 weeks. Throughout that period, tap water was provided ad libitum. Initially, evacetrapib was solubilized in 20% of the final solution volume of Kolliphor® EL (pH range 6.0–8.0, cat# C5135) by alternating between 5 min intervals using an ultrasonic water bath at 4°C and a hot water bath at 50°C until complete dissolution. Then, 80% of the final volume was added (isotonic glucose solution 50 g/L glucose containing D-(+)-glucose Sigma cat# G7021 in MilliQ water, sterile filtered).
CETP inhibitor evacetrapib was administered through tail vein injection at doses of 40 mg/kg body weight (BW) or 120 mg/kg BW. Mice weighed 28.42 ± 3.16 g on the day of injection. They were randomly divided into two groups: 24 mice received a dose of 40 mg/kg BW of evacetrapib and the other 24 received a dose of 120 mg/kg BW. Mice from both groups were euthanized at 0, 0.5, 2, 6, 12, and 24 h after injection. Mice euthanized at later time points had continued access to food and water until the end of the experiment. Blood was collected (300–500 µL) at euthanasia for each mouse by cardiac puncture. Blood plasma was extracted using 10 µL of 1 M EDTA pH 8.0 solution in MilliQ water. Brain and liver tissues were collected immediately after euthanasia, rinsed in 0.9% NaCl solution, and snap-frozen in liquid nitrogen. Samples were stored at −80°C until analysis.
Sample preparation and digestion for evacetrapib analysis were performed using UHPLC-MS-qTOF. Working solutions from a stock of evacetrapib were prepared at concentrations of 10 μmol, 100 nmol, 1 nmol, 500 pmol, and 125 pmol per ml of methanol. Working solutions of anacetrapib used as an internal standard were prepared at concentrations of 10 μmol, 100 nmol, and 1 nmol per ml from a stock solution.
Brain and liver samples were homogenized using a polytron supplemented with a carbonate buffer at pH 9.8. The volume was adjusted such that each sample reached a final concentration of 100 mg/ml of buffer. A volume of 0.5 ml of homogenate was transferred to a Pyrex tube and enriched with 100 µL of 1 nmol/ml anacetrapib solution used as an internal standard. Then, samples were extracted twice using 4 ml of saturated ethyl acetate. For each extraction, samples were shaken for 30 min using a lateral shaker, followed by a centrifugation round (20 min, 3,000 rpm, 4°C). Organic phases were collected, combined, and then evaporated until dry under a nitrogen stream in a rotating bath at 40°C. The residues were resuspended in methanol. Samples were vortexed until no residues were left. Resuspended residues for both the brain and liver were then centrifuged (20 min, 3,000 rpm, 4°C). The supernatant was recovered, transferred into new vials, and injected into UHPLC-MS-qTOF. For the plasma measurement, 20 µL of plasma was enriched with 100 µL of 1 nmol/ml anacetrapib solution in a microtube. Evacetrapib was extracted using two steps of ethanol wash (200 µL) followed by an incubation time (30 min, 22°C) and centrifugation (5 min, 16,000 g, 10°C). Samples were dried under a gentle nitrogen stream to separate the liquid phase from the solid phase. The residues were subsequently dissolved in methanol, vortexed until no residues were left, and centrifuged (20 min, 3,000 rpm, 4°C). The supernatant was recovered, transferred into new vials, and injected into UHPLC-MS-qTOF.
Quantification was performed using a seven-point calibration curve with the internal standard correction prepared in the brain, liver, or plasma, respectively. […]

[1] = liver, 120 mg/kg BW i.v., 120 mg/kg
[2] = male, hCETPtg (C57BL/6J background), mouse, brain, iv, 40 mg/kg, brain, 40 mg/kg BW i.v.
[3] = male, hCETPtg (C57BL/6J background), mouse, brain, iv, 120 mg/kg, brain, 120 mg/kg BW i.v.
[4] = male, hCETPtg (C57BL/6J background), mouse, iv, plasma, 40 mg/kg BW i.v.
[5] = male, hCETPtg (C57BL/6J background), mouse, iv, plasma, 120 mg/kg BW i.v.
[6] = male, hCETPtg (C57BL/6J background), mouse, liver, iv, 40 mg/kg, liver, 40 mg/kg BW i.v.
[7] = male, hCETPtg (C57BL/6J background), mouse, liver, iv, 120 mg/kg, liver, 120 mg/kg BW i.v.
[8] = male, hCETPtg (C57BL/6J background), mouse, plasma, iv, 40 mg/kg, plasma, 40 mg/kg BW i.v.
[9] = male, hCETPtg (C57BL/6J background), mouse, plasma, iv, 120 mg/kg, plasma, 120 mg/kg BW i.v.

Cc1cc(C)c2c(c1)[C@@H](N(Cc1cc(C(F)(F)F)cc(C(F)(F)F)c1)c1nnn(C)n1)CCCN2C[C@H]1CC[C@H](C(=O)O)CC1 [evacetrapib]
Peak concentration in the brain after correction for residual blood (40 mg/kg BW i.v.): 1.5 µM | Av. conc. in brain, calculated (corrected for residual blood) (40 mg/kg BW i.v., 0 h): 0.00 nmol/g | Av. conc. in brain, measured (not corrected for residual blood) (40 mg/kg BW i.v., 0 h): 2.05 nmol/g | Av. conc. in brain, calculated (corrected for residual blood) (40 mg/kg BW i.v., 0.5 h): 1.5 nmol/g and 1.53 nmol/g | Av. conc. in brain, measured (not corrected for residual blood) (40 mg/kg BW i.v., 0.5 h): 2.21 nmol/g | Av. conc. in brain, calculated (corrected for residual blood) (40 mg/kg BW i.v., 2 h): 1.0 nmol/g and 1.03 nmol/g | Av. conc. in brain, measured (not corrected for residual blood) (40 mg/kg BW i.v., 2 h): 1.41 nmol/g | Av. conc. in brain, calculated (corrected for residual blood) (40 mg/kg BW i.v., 6 h): 0.5 nmol/g and 0.50 nmol/g | Av. conc. in brain, measured (not corrected for residual blood) (40 mg/kg BW i.v., 6 h): 0.57 nmol/g | Av. conc. in brain, calculated (corrected for residual blood) (40 mg/kg BW i.v., 12 h): 0.1 nmol/g and 0.11 nmol/g | Av. conc. in brain, measured (not corrected for residual blood) (40 mg/kg BW i.v., 12 h): 0.12 nmol/g | Av. conc. in brain, calculated (corrected for residual blood) (40 mg/kg BW i.v., 24 h): 0.00 nmol/g | Av. conc. in brain, measured (not corrected for residual blood) (40 mg/kg BW i.v., 24 h): 0.00 nmol/g | Brain peak concentration above plasma IC50 (40 mg/kg BW i.v.): approximately 40 fold | Peak concentration in the brain after correction for residual blood (120 mg/kg BW i.v.): 16.7 µM | Av. conc. in brain, calculated (corrected for residual blood) (120 mg/kg BW i.v., 0 h): 0 nmol/g and 0.00 nmol/g | Av. conc. in brain, measured (not corrected for residual blood) (120 mg/kg BW i.v., 0 h): 22.2 nmol/g | Av. conc. in brain, calculated (corrected for residual blood) (120 mg/kg BW i.v., 0.5 h): 16.7 nmol/g | Av. conc. in brain, measured (not corrected for residual blood) (120 mg/kg BW i.v., 0.5 h): 25.8 nmol/g | Av. conc. in brain, calculated (corrected for residual blood) (120 mg/kg BW i.v., 2 h): 15.3 nmol/g | Av. conc. in brain, measured (not corrected for residual blood) (120 mg/kg BW i.v., 2 h): 17.1 nmol/g | Av. conc. in brain, calculated (corrected for residual blood) (120 mg/kg BW i.v., 6 h): 5.0 nmol/g and 4.96 nmol/g | Av. conc. in brain, measured (not corrected for residual blood) (120 mg/kg BW i.v., 6 h): 5.36 nmol/g | Av. conc. in brain, calculated (corrected for residual blood) (120 mg/kg BW i.v., 12 h): 1.0 nmol/g and 1.00 nmol/g | Av. conc. in brain, measured (not corrected for residual blood) (120 mg/kg BW i.v., 12 h): 1.11 nmol/g | Av. conc. in brain, calculated (corrected for residual blood) (120 mg/kg BW i.v., 24 h): 0.02 nmol/g | Av. conc. in brain, measured (not corrected for residual blood) (120 mg/kg BW i.v., 24 h): 0.03 nmol/g | Brain peak concentration above plasma IC50 (120 mg/kg BW i.v.): ~450 fold | Increase of tissue penetration ratio from the low to the high dose (120 vs 40 mg/kg BW i.v.): 1.63 fold | AUMC (brain, 40 mg/kg BW i.v.): 39.2 nmol x h^2/mL | AUC (brain, 40 mg/kg BW i.v., 24 h): 10.6 nmol x h/mL | AUMC (brain, 120 mg/kg BW i.v.): 395 nmol x h^2/mL | AUC (brain, 120 mg/kg BW i.v., 24 h): 115 nmol x h/mL | Time of peak plasma values (first sampling time point, 40 and 120 mg/kg BW i.v.): 0 h | Entry into brain tissue (hCETPtg mice, i.v. injection): does enter the mouse brain tissue | AUMC (liver, 40 mg/kg BW i.v.): 1183 nmol x h^2/mL | AUC (liver, 40 mg/kg BW i.v., 24 h): 267 nmol x h/mL | t1/2β (half-life) (liver, 40 mg/kg BW i.v., 40 mg/kg): 3.0 h | AUMC (liver, 120 mg/kg BW i.v.): 3167 nmol x h^2/mL | AUC (liver, 120 mg/kg BW i.v., 24 h): 881 nmol x h/mL | Kβ (elimination rate constant) [1]: 0.2 h⁻¹ | t1/2β (half-life) [1]: 3.2 h | k el [2]: 5.56e-05 s⁻¹ | half-life [2]: 2.8 h | k el [3]: 8.33e-05 s⁻¹ | half-life [3]: 2.5 h | Kp (male, hCETPtg (C57BL/6J background), mouse, brain, iv, 40 mg/kg BW i.v.): 0.08 | Kp (male, hCETPtg (C57BL/6J background), mouse, brain, iv, 120 mg/kg BW i.v.): 0.13 | Tmax (male, hCETPtg (C57BL/6J background), mouse, brain, iv, both doses, 40 and 120 mg/kg BW i.v., read-out: Time of peak concentration in the brain): 0.5 h | MRT (male, hCETPtg (C57BL/6J background), mouse, iv, brain, 40 mg/kg BW i.v.): 3.7 h | MRT (male, hCETPtg (C57BL/6J background), mouse, iv, brain, 120 mg/kg BW i.v.): 3.4 h | MRT (male, hCETPtg (C57BL/6J background), mouse, iv, liver, 40 mg/kg BW i.v.): 4.4 h | MRT (male, hCETPtg (C57BL/6J background), mouse, iv, liver, 120 mg/kg BW i.v.): 3.6 h | clearance [4]: 0.157 mL/min | MRT [4]: 2 h | Vd [4]: 0.0185 L | clearance [5]: 0.055 mL/min | MRT [5]: 1.6 h | Vd [5]: 0.0053 L | k el [6]: 5.56e-05 s⁻¹ | half-life [6]: 2.8 h | k el [7]: 8.33e-05 s⁻¹ | half-life [7]: 2.5 h | k el [8]: 0.000111 s⁻¹ | half-life [8]: 2.3 h | k el [9]: 5.56e-05 s⁻¹ | half-life [9]: 3 h | AUMC (plasma, 40 mg/kg BW i.v.): 398 nmol x h^2/mL | Kα (plasma, 40 mg/kg BW i.v.): 6.5 h⁻¹ | t1/2α (plasma, 40 mg/kg BW i.v.): 0.1 h | AUC (plasma, 40 mg/kg BW i.v., 24 h): 203 nmol x h/mL | AUMC (plasma, 120 mg/kg BW i.v.): 2297 nmol x h^2/mL | Kα (plasma, 120 mg/kg BW i.v.): 1.8 h⁻¹ | t1/2α (plasma, 120 mg/kg BW i.v.): 0.4 h | AUC (plasma, 120 mg/kg BW i.v., 24 h): 1418 nmol x h/mL
